Test system: MV-4-11 cells
Assay: Gene expression microarray analysis (Affymetrix PrimeView) and GSEA
Assay type: cell-based, human
Parameters: RFU PODN (11730768_x_at) / Fold change /veh PODN (11730768_x_at) / RFU LINC00158 (11744669_a_at) / Fold change /veh LINC00158 (11744669_a_at) / RFU DUSP10 (11751237_a_at) / Fold change /veh DUSP10 (11751237_a_at) / RFU ID3 (11757404_x_at) / Fold change /veh ID3 (11757404_x_at) / RFU PLEKHG5 (11737974_s_at) / Fold change /veh PLEKHG5 (11737974_s_at) / RFU LRRC4B (11730491_at) / Fold change /veh LRRC4B (11730491_at) / RFU GIMAP4 (11747438_a_at) / Fold change /veh GIMAP4 (11747438_a_at) / RFU KRT8 (11758183_x_at) / Fold change /veh KRT8 (11758183_x_at) / RFU CNN1 (11734310_a_at) / Fold change /veh CNN1 (11734310_a_at) / RFU VPS37D (11726825_at) / Fold change /veh VPS37D (11726825_at) / RFU C10orf10 (11716522_x_at) / Fold change /veh C10orf10 (11716522_x_at) / RFU KIR2DL2 /// KIR2DL4 /// KIR2DL5A /// KIR2DL5B /// KIR2DS1 /// KIR2DS2 /// KIR2DS3 /// KIR2DS4 /// KIR3DL3 /// KIR3DL3 /// KIR3DS1 (11738374_at) / Fold change /veh KIR2DL2 /// KIR2DL4 /// KIR2DL5A /// KIR2DL5B /// KIR2DS1 /// KIR2DS2 /// KIR2DS3 /// KIR2DS4 /// KIR3DL3 /// KIR3DL3 /// KIR3DS1 (11738374_at) / RFU C1QL1 (11718748_at) / Fold change /veh C1QL1 (11718748_at) / RFU TMPRSS4 (11747572_a_at) / Fold change /veh TMPRSS4 (11747572_a_at) / RFU HAMP (11756126_x_at) / Fold change /veh HAMP (11756126_x_at) / RFU RNFT2 (11725882_a_at) / Fold change /veh RNFT2 (11725882_a_at) / RFU NR4A2 (11747474_a_at) / Fold change /veh NR4A2 (11747474_a_at) / RFU ABCC12 (11746883_a_at) / Fold change /veh ABCC12 (11746883_a_at) / RFU TMEM136 (11760407_x_at) / Fold change /veh TMEM136 (11760407_x_at) / RFU CLDN22 /// WWC2 (11732394_at) / Fold change /veh CLDN22 /// WWC2 (11732394_at) / RFU HLA-DPB1 (11760878_x_at) / Fold change /veh HLA-DPB1 (11760878_x_at) / RFU SPINT1 (11716480_a_at) / Fold change /veh SPINT1 (11716480_a_at) / RFU GAP43 (11754022_s_at) / Fold change /veh GAP43 (11754022_s_at) / RFU A4GNT (11735810_at) / Fold change /veh A4GNT (11735810_at) / RFU PRB3 (11715151_x_at) / Fold change /veh PRB3 (11715151_x_at) / RFU TUBB4B (11761932_at) / Fold change /veh TUBB4B (11761932_at) / RFU CAPN14 (11732068_a_at) / Fold change /veh CAPN14 (11732068_a_at) / RFU TMCC2 (11721928_a_at) / Fold change /veh TMCC2 (11721928_a_at) / RFU IRGQ (11745062_a_at) / Fold change /veh IRGQ (11745062_a_at) / RFU FAM174B (11720279_a_at) / Fold change /veh FAM174B (11720279_a_at) / RFU TMPRSS4 (11748680_a_at) / Fold change /veh TMPRSS4 (11748680_a_at) / RFU FAM212B (11763350_a_at) / Fold change /veh FAM212B (11763350_a_at) / RFU PLEKHG5 (11743358_a_at) / Fold change /veh PLEKHG5 (11743358_a_at) / RFU ZSCAN30 (11745921_a_at) / Fold change /veh ZSCAN30 (11745921_a_at) / RFU CMKLR1 (11741424_a_at) / Fold change /veh CMKLR1 (11741424_a_at) / RFU LOC101060620 /// MAPK8IP1 (11723275_at) / Fold change /veh LOC101060620 /// MAPK8IP1 (11723275_at) / RFU SPTSSB (11747773_x_at) / Fold change /veh SPTSSB (11747773_x_at) / RFU PRSS12 (11739890_at) / Fold change /veh PRSS12 (11739890_at) / RFU BIN1 (11741810_x_at) / Fold change /veh BIN1 (11741810_x_at) / RFU WNT11 (11732464_a_at) / Fold change /veh WNT11 (11732464_a_at) / RFU C10orf10 (11716521_a_at) / Fold change /veh C10orf10 (11716521_a_at) / RFU C5orf56 (11738089_at) / Fold change /veh C5orf56 (11738089_at) / RFU CYB561 (11721691_x_at) / Fold change /veh CYB561 (11721691_x_at) / RFU ANKRD19P (11752326_a_at) / Fold change /veh ANKRD19P (11752326_a_at) / RFU OR2T12 /// OR2T33 /// OR2T8 (11738714_s_at) / Fold change /veh OR2T12 /// OR2T33 /// OR2T8 (11738714_s_at) / RFU VCAN (11748164_a_at) / Fold change /veh VCAN (11748164_a_at) / RFU JSRP1 (11732532_at) / Fold change /veh JSRP1 (11732532_at) / RFU KRTAP10-11 (11738290_x_at) / Fold change /veh KRTAP10-11 (11738290_x_at) / RFU MYO3A (11730013_a_at) / Fold change /veh MYO3A (11730013_a_at) / RFU EBF3 (11725865_a_at) / Fold change /veh EBF3 (11725865_a_at) / RFU CAMK2N1 (11719241_x_at) / Fold change /veh CAMK2N1 (11719241_x_at) / RFU C5orf56 (11738088_a_at) / Fold change /veh C5orf56 (11738088_a_at) / RFU OLFML3 (11715873_a_at) / Fold change /veh OLFML3 (11715873_a_at) / RFU LOC100653217 /// NTM (11731650_a_at) / Fold change /veh LOC100653217 /// NTM (11731650_a_at) / RFU MAPK11 (11762145_a_at) / Fold change /veh MAPK11 (11762145_a_at) / RFU FIZ1 (11724087_x_at) / Fold change /veh FIZ1 (11724087_x_at) / RFU OASL (11726364_x_at) / Fold change /veh OASL (11726364_x_at) / RFU SOX15 (11748057_x_at) / Fold change /veh SOX15 (11748057_x_at) / RFU CD79A (11719716_a_at) / Fold change /veh CD79A (11719716_a_at) / RFU HIST1H1D (11736915_at) / Fold change /veh HIST1H1D (11736915_at) / RFU CASKIN2 (11723855_a_at) / Fold change /veh CASKIN2 (11723855_a_at) / RFU LOC730098 (11760151_x_at) / Fold change /veh LOC730098 (11760151_x_at) / RFU OR4N2 (11742367_at) / Fold change /veh OR4N2 (11742367_at) / RFU PRRT2 (11749266_a_at) / Fold change /veh PRRT2 (11749266_a_at) / RFU SNX32 (11753110_a_at) / Fold change /veh SNX32 (11753110_a_at) / RFU CDHR5 (11726645_a_at) / Fold change /veh CDHR5 (11726645_a_at) / RFU RCAN1 (11760418_a_at) / Fold change /veh RCAN1 (11760418_a_at) / RFU FAM167A (11723789_a_at) / Fold change /veh FAM167A (11723789_a_at) / RFU FAM26E (11764081_at) / Fold change /veh FAM26E (11764081_at) / RFU ISYNA1 (11749810_s_at) / Fold change /veh ISYNA1 (11749810_s_at) / RFU ACY1 (11761880_at) / Fold change /veh ACY1 (11761880_at) / RFU 11764098_at / Fold change /veh 11764098_at / RFU SAMD14 (11745864_x_at) / Fold change /veh SAMD14 (11745864_x_at) / RFU NPB (11741838_a_at) / Fold change /veh NPB (11741838_a_at) / RFU TMPRSS6 (11731388_a_at) / Fold change /veh TMPRSS6 (11731388_a_at) / RFU KRTAP10-2 (11738614_at) / Fold change /veh KRTAP10-2 (11738614_at) / RFU ARHGAP8 /// PRR5-ARHGAP8 (11727945_x_at) / Fold change /veh ARHGAP8 /// PRR5-ARHGAP8 (11727945_x_at) / RFU KRTAP5-7 /// NADSYN1 (11734609_at) / Fold change /veh KRTAP5-7 /// NADSYN1 (11734609_at) / RFU RASL12 (11751679_a_at) / Fold change /veh RASL12 (11751679_a_at) / RFU CDKN2B (11736163_a_at) / Fold change /veh CDKN2B (11736163_a_at) / RFU PRF1 (11729649_at) / Fold change /veh PRF1 (11729649_at) / RFU, ZNF638 /// ZNF638-IT1 / Fold change vs veh, ZNF638 /// ZNF638-IT1 / RFU, PANK3 / Fold change vs veh, PANK3 / RFU, SH3YL1 / Fold change vs veh, SH3YL1 / RFU, ZEB2 / Fold change vs veh, ZEB2 / RFU, NRIP1 / Fold change vs veh, NRIP1 / RFU, PTTG1IP / Fold change vs veh, PTTG1IP / RFU, CAPN2 / Fold change vs veh, CAPN2 / RFU, MED14 / Fold change vs veh, MED14 / RFU, SNORA58 / Fold change vs veh, SNORA58 / RFU, C1orf63 / Fold change vs veh, C1orf63 / RFU, LRRFIP1 / Fold change vs veh, LRRFIP1 / RFU, NDUFAF7 / Fold change vs veh, NDUFAF7 / RFU, SLC12A2 / Fold change vs veh, SLC12A2 / RFU, IBTK / Fold change vs veh, IBTK / RFU, ESF1 / Fold change vs veh, ESF1 / Fold change vs veh, TMEM50B / RFU, TAOK1 / Fold change vs veh, TAOK1 / RFU, ACBD3 / Fold change vs veh, ACBD3 / RFU, TMA16 / Fold change vs veh, TMA16 / RFU, RWDD3 / Fold change vs veh, RWDD3 / RFU, BCAT1 / Fold change vs veh, BCAT1 / RFU, EDEM3 / Fold change vs veh, EDEM3 / RFU, TMEM33 / Fold change vs veh, TMEM33 / RFU, WDR75 / Fold change vs veh, WDR75 / RFU, AHCTF1 / Fold change vs veh, AHCTF1 / RFU, TFRC / Fold change vs veh, TFRC / RFU, ZDHHC17 / Fold change vs veh, ZDHHC17 / RFU, NOM1 / Fold change vs veh, NOM1 / RFU, ARL8B / Fold change vs veh, ARL8B / RFU, ZBTB11 / Fold change vs veh, ZBTB11 / RFU, TAMM41 / Fold change vs veh, TAMM41 / RFU, KIAA1704 /// LOC100996395 / Fold change vs veh, KIAA1704 /// LOC100996395 / RFU, ING1 / Fold change vs veh, ING1 / RFU, TRMT61B / Fold change vs veh, TRMT61B / RFU, FUBP3 / Fold change vs veh, FUBP3 / RFU, TP53 / Fold change vs veh, TP53 / RFU, TNKS2 / Fold change vs veh, TNKS2 / RFU, ZFP14 / Fold change vs veh, ZFP14 / RFU, ACTR2 / Fold change vs veh, ACTR2 / RFU, PPP3R1 / Fold change vs veh, PPP3R1 / RFU, PIK3R1 / Fold change vs veh, PIK3R1 / RFU, HNRNPA1 / Fold change vs veh, HNRNPA1 / RFU, RNF170 / Fold change vs veh, RNF170 / RFU, ZNF28 / Fold change vs veh, ZNF28 / RFU, RNGTT / Fold change vs veh, RNGTT / RFU, OGT / Fold change vs veh, OGT / RFU, BRD1 / Fold change vs veh, BRD1 / RFU, MARS / Fold change vs veh, MARS / RFU, ZNF655 / Fold change vs veh, ZNF655 / RFU, FAHD1 / Fold change vs veh, FAHD1 / RFU, BDP1 / Fold change vs veh, BDP1 / RFU, LRRCC1 / Fold change vs veh, LRRCC1 / RFU, ARID1A / Fold change vs veh, ARID1A / RFU, ZNF146 / Fold change vs veh, ZNF146 / RFU, ZNF330 / Fold change vs veh, ZNF330 / RFU, GPN3 / Fold change vs veh, GPN3 / RFU, C9orf123 / Fold change vs veh, C9orf123 / RFU, N4BP2L2 / Fold change vs veh, N4BP2L2 / RFU, ARFIP1 / Fold change vs veh, ARFIP1 / RFU, FAM179B / Fold change vs veh, FAM179B / RFU, BCL10 / Fold change vs veh, BCL10 / RFU, UHRF1BP1L / Fold change vs veh, UHRF1BP1L / RFU, BET1 / Fold change vs veh, BET1 / RFU, CNOT2 / Fold change vs veh, CNOT2 / RFU, ZNF268 / Fold change vs veh, ZNF268 / Fold change vs veh, ZNF507 / RFU, DGCR2 / Fold change vs veh, DGCR2 / RFU, WDSUB1 / Fold change vs veh, WDSUB1 / Fold change vs veh, HSP90B1 /// MIR3652 / RFU, ADSS / Fold change vs veh, ADSS / RFU, GK / Fold change vs veh, GK / RFU, ZNF148 / Fold change vs veh, ZNF148 / RFU, TAF9 / Fold change vs veh, TAF9 / RFU, SLC1A5 / Fold change vs veh, SLC1A5 / RFU, SLMO2 / Fold change vs veh, SLMO2 / RFU, ABCC4 / Fold change vs veh, ABCC4 / RFU, LOC101060439 /// RAP1B / Fold change vs veh, LOC101060439 /// RAP1B / RFU, RFX7 / Fold change vs veh, RFX7 / RFU, GTPBP10 / Fold change vs veh, GTPBP10 / RFU, CNEP1R1 / Fold change vs veh, CNEP1R1 / RFU, BIVM-ERCC5 /// ERCC5 / Fold change vs veh, BIVM-ERCC5 /// ERCC5 / RFU, ILF3 / Fold change vs veh, ILF3 / RFU 11762660_at / Fold change /veh 11762660_at / RFU VCAN (11757783_s_at) / Fold change /veh VCAN (11757783_s_at) / RFU DDX43 (11728927_at) / Fold change /veh DDX43 (11728927_at) / RFU KRT8 (11758188_x_at) / Fold change /veh KRT8 (11758188_x_at) / RFU NKD1 (11759106_at) / Fold change /veh NKD1 (11759106_at) / RFU SRD5A1 (11742802_a_at) / Fold change /veh SRD5A1 (11742802_a_at) / RFU TPSAB1 /// TPSB2 (11721975_s_at) / Fold change /veh TPSAB1 /// TPSB2 (11721975_s_at) / RFU GSTM3 (11746129_a_at) / Fold change /veh GSTM3 (11746129_a_at) / RFU IL23R (11737362_x_at) / Fold change /veh IL23R (11737362_x_at) / RFU TMEM51 (11727254_a_at) / Fold change /veh TMEM51 (11727254_a_at) / RFU PIWIL2 (11732686_x_at) / Fold change /veh PIWIL2 (11732686_x_at) / RFU ORM1 (11744905_x_at) / Fold change /veh ORM1 (11744905_x_at) / RFU CCDC152 (11743942_at) / Fold change /veh CCDC152 (11743942_at) / RFU ECM1 (11717891_a_at) / Fold change /veh ECM1 (11717891_a_at) / RFU IL23R (11748794_a_at) / Fold change /veh IL23R (11748794_a_at) / RFU TNFAIP8L3 (11732012_x_at) / Fold change /veh TNFAIP8L3 (11732012_x_at) / RFU MBOAT4 (11741988_at) / Fold change /veh MBOAT4 (11741988_at) / RFU 11764193_at / Fold change /veh 11764193_at / RFU TMEM53 (11763286_at) / Fold change /veh TMEM53 (11763286_at) / RFU MAGEB2 (11727129_at) / Fold change /veh MAGEB2 (11727129_at) / RFU TMEM200A (11744735_a_at) / Fold change /veh TMEM200A (11744735_a_at) / RFU CCDC152 (11751479_a_at) / Fold change /veh CCDC152 (11751479_a_at) / RFU FAM211A (11726209_a_at) / Fold change /veh FAM211A (11726209_a_at) / RFU RGS16 (11746705_a_at) / Fold change /veh RGS16 (11746705_a_at) / RFU VCAN (11755009_s_at) / Fold change /veh VCAN (11755009_s_at) / RFU RHOB (11743442_s_at) / Fold change /veh RHOB (11743442_s_at) / RFU RGS16 (11720943_a_at) / Fold change /veh RGS16 (11720943_a_at) / RFU RGS16 (11720944_at) / Fold change /veh RGS16 (11720944_at) / RFU, VPS4B / Fold change vs veh, VPS4B / RFU, CREB1 / Fold change vs veh, CREB1 / RFU, DNAJC13 / Fold change vs veh, DNAJC13 / RFU, GNAQ / Fold change vs veh, GNAQ / RFU, CDK5R1 / Fold change vs veh, CDK5R1 / RFU, ZRANB3 / Fold change vs veh, ZRANB3 / RFU, CUL4A / Fold change vs veh, CUL4A / RFU, CCNY / Fold change vs veh, CCNY / RFU, UFL1 / Fold change vs veh, UFL1 / RFU, COG3 / Fold change vs veh, COG3 / RFU, DIAPH2 / Fold change vs veh, DIAPH2 / RFU, SKA2 / Fold change vs veh, SKA2 / RFU, AFF3 / Fold change vs veh, AFF3 / RFU, LMF1 / Fold change vs veh, LMF1 / RFU, IPO11 / Fold change vs veh, IPO11 / RFU, DFFB / Fold change vs veh, DFFB / RFU, FOXP1 / Fold change vs veh, FOXP1 / RFU, CARD8 / Fold change vs veh, CARD8 / RFU, STRN3 / Fold change vs veh, STRN3 / RFU, ADK / Fold change vs veh, ADK / RFU, RASSF2 / Fold change vs veh, RASSF2 / RFU, WIPF1 / Fold change vs veh, WIPF1 / RFU, LARP1B / Fold change vs veh, LARP1B / RFU, RASA1 / Fold change vs veh, RASA1 / RFU, RB1 / Fold change vs veh, RB1 / RFU, PPFIA1 / Fold change vs veh, PPFIA1 / RFU, MAT2A / Fold change vs veh, MAT2A / RFU, CCT5 / Fold change vs veh, CCT5 / RFU, WDR92 / Fold change vs veh, WDR92 / RFU, CUX1 / Fold change vs veh, CUX1 / RFU, TTC7A / Fold change vs veh, TTC7A / RFU, TMEM135 / Fold change vs veh, TMEM135 / RFU, DEPTOR / Fold change vs veh, DEPTOR / RFU, CPM / Fold change vs veh, CPM / RFU, DNAJB6 / Fold change vs veh, DNAJB6 / RFU, CACNA2D3 / Fold change vs veh, CACNA2D3 / RFU, DTX4 / Fold change vs veh, DTX4 / RFU, TFCP2 / Fold change vs veh, TFCP2 / RFU, GMCL1 /// GMCL1P1 / Fold change vs veh, GMCL1 /// GMCL1P1 / RFU, AEBP2 / Fold change vs veh, AEBP2 / RFU, SNHG1 /// SNORD22 /// SNORD25 /// SNORD26 /// SNORD27 /// SNORD28 /// SNORD29 /// SNORD31 / Fold change vs veh, SNHG1 /// SNORD22 /// SNORD25 /// SNORD26 /// SNORD27 /// SNORD28 /// SNORD29 /// SNORD31 / Fold change (Aza/veh), C12orf56 (ProbeSet 11735607_a_at) / Fold change (ACY-1035/veh), C12orf56 (ProbeSet 11735607_a_at) / Fold change (Aza/veh), FGFR1OP (ProbeSet 11751329_s_at) / Fold change (ACY-1035/veh), FGFR1OP (ProbeSet 11751329_s_at) / Fold change (Aza/veh), VPS36 (ProbeSet 11739960_a_at) / Fold change (ACY-1035/veh), VPS36 (ProbeSet 11739960_a_at) / RFU SYPL1 (11715823_x_at) / Fold change /veh SYPL1 (11715823_x_at) / RFU IGFBP7 (11715501_s_at) / Fold change /veh IGFBP7 (11715501_s_at) / RFU REEP3 (11722064_at) / Fold change /veh REEP3 (11722064_at) / RFU IGLL1 (11728026_x_at) / Fold change /veh IGLL1 (11728026_x_at): dose or concentration left out as unconfirmed
Details: MV-4-11 cells, 48 hours

Nc1ccc(-c2cccs2)cc1NC(=O)c1ccc2c(c1)cc(C1CC1)n2CCN1CCOCC1 [ACY-1035]
Fold change /veh CYB561 (11721691_x_at): 0.97

Reference: paper PMC5218480 (PLoS ONE, 2017)
